biological target: human SGLT1 (Homo sapiens (Human), UniProt P13866); assay: SGLT1 inhibitory activity: 14C-AMG uptake into CHO-K1 cell line stably expressing human SGLT1; format: cell-based; settings: 14C-AMG uptake, CHO-K1 cells expressing human SGLT1
Experimental: SGLT1 inhibitory activity of a test compound (IC50 value) was calculated based on an amount of intake into a cell of labeled α-methyl-D-glucopyranoside (^14C-AMG) which is transported by SGLT1.
1) Construction of Human SGLT1 Expression Plasmid
A DNA fragment containing human SGLT1, wherein NheI recognition and cleavage sequence was added upstream of a Kozac consensus sequence of the vector; and a stop codon (TAG) and a SalI recognition and cleavage sequence was added just downstream of a coding region of the human SGLT1, was amplified by PCR using pCMV6-hSGLT1 (OriGene) as a template. The purified DNA fragment was cleaved by restriction enzymes NheI and SalI, and the obtained fragment was ligated into pcDNA3.1 (+) which was cleaved by NheI and XhoI to construct human SGLT1 expression plasmid.
2) Establishment of Stable Cell Lines Expressing Human SGLT1
A human SGLT1 expression plasmid pcDNA-hSGLT1 was transfected into CHO-K1 cells by Lipofectamine-2000 (Invitrogen). The cells were cultured in the presence of G418 (Nakalai tesque) and drug-resistant cells were selected. A cell line having the highest S/B ratio of an amount of ^14C-AMG uptake per cell treated by solvent to an amount of ^14C-AMG uptake per cell treated by phlorizin (SGLT inhibitor) was selected from the drug-resistant cells as a stable cell lines expressing human SGLT1.
3) Evaluation of SGLT1 Inhibitory Activity
The stable cell line expressing human SGLT1 was seeded at 5×10^4 cells/well on BioCoat™ Poly-D-Lysine 96 well plate with Lid (Becton Dickinson and Company) and cultured at 37° C. under 5% CO2 overnight. The medium was replaced with 100 μL/well of a Na (−) buffer (140 mM choline chloride, 2 mM KCl, 1 mM MgCl2, 1 mM CaCl2, 10 mM HEPES, 5 mM Tris, pH7.4) followed by incubation for 20 minutes at 37° C. under 5% CO2. After removing the Na (−) buffer, a test compound solution which was prepared from Na (+) buffer (140 mM NaCl, 2 mM KCl, 1 mM MgCl2, 1 mM CaCl2, 10 mM HEPES, 5 mM Tris, pH7.4) containing BSA was added thereto at 40 μL/well. In addition, Na (+) buffer containing 8 kBq of ^14C-AMG and 2 mM AMG was added thereto at 40 μL/well, and was mixed well. Na (−) buffer containing BSA was added to a blank well at 40 μL/well and additionally adding a Na (+) buffer containing 8 kBq of ^14C-AMG and 2 mM AMG, and was mixed well. Cells were incubated for 1 hour at 37° C. under 5% CO2. After the reaction, the cells were washed twice with 100 μL/well of iced wash buffer (100 mM AMG, 140 mM choline chloride, 2 mM KCl, 1 mM MgCl2, 1 mM CaCl2, 10 mM HEPES, 5 mM Tris, pH7.4), then lysed in 50 μL/well of a 0.2N aqueous solution of NaOH. The cell lysate was transferred to OptiPlate96 (Perkin-Elmer) and 100 μL/well of MicroScint-40 (Perkin-Elmer) was dispensed. The radioactivity was counted by TOPCOUNT NXT (Perkin-Elmer).
A data was obtained by deducting the average value (CPM) of blank wells from the average value (CPM) of each treated well. The inhibition ratio (%) was calculated by the following formula: inhibition rate (%)=[(A−B)/A]×100, where A is a data of the solvent control, and B is a data of a test compound.

Sequence of human SGLT1 (P13866 whole entry): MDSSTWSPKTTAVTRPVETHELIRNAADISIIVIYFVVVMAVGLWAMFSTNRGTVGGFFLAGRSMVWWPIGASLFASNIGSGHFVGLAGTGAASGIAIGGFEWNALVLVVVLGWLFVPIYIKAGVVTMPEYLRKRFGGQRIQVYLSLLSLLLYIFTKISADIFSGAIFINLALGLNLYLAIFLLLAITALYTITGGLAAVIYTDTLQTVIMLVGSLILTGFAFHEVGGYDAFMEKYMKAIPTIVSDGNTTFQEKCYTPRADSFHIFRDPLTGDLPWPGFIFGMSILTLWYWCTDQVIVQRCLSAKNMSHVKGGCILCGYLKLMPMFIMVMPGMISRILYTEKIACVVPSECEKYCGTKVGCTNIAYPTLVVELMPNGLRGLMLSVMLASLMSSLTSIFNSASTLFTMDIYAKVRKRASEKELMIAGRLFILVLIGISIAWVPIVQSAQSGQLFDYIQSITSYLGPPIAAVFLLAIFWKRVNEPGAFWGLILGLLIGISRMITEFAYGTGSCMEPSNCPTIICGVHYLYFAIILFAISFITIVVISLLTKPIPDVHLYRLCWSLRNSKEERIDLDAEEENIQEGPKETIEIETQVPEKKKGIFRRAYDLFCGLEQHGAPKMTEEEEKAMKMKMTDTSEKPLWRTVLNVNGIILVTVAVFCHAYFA

| Compound | IC50 [nM] |
| --- | --- |
| CCCc1cccc(-c2cc(NC(=O)C3(C)CNC(=O)C3)nn2-c2ccccc2)c1 (racemic) [Example 21] | 680 |
| CC(C)Cc1cccc(-c2cc(NC(=O)[C@H]3CNC(=O)C3)nn2-c2ccccc2)c1 [Example 70] | 1.6 |
| C[C@H]1C(=O)NC[C@@H]1C(=O)Nc1cc(-c2cccc(OCC(F)(F)F)c2)n(-c2ccc(F)cc2)n1 [Example 212] | 5.8 |
| CC(C)C(F)(F)c1cccc(-c2cc(NC(=O)[C@H]3CNC(=O)C3)nn2-c2ccccc2)c1 [Example 138] | 1.5 |
| C[C@H]1C(=O)NC[C@@H]1C(=O)Nc1cc(-c2cccc(C(F)(F)F)c2)n(-c2ccc(F)cc2)n1 [Example 202] | 12 |
| CCC(F)(F)c1cccc(-c2cc(NC(=O)[C@H]3CNC(=O)[C@@H]3C)nn2-c2ccc(F)cc2)c1 [Example 172] | 5.5 |
| O=C1C[C@H](C(=O)Nc2cc(-c3cccc(C(F)(F)F)c3)n(-c3ccccc3)n2)CN1 [Example 28] | 52 |
| CC(C)c1cccc(-c2cc(NC(=O)[C@@H]3CNC(=O)C3)nn2-c2ccccc2)c1 [Example 55] | 18 |
| C[C@H]1C(=O)NC[C@@H]1C(=O)Nc1cc(-c2cccc(C(F)(F)F)c2)n(-c2ccccc2)n1 [Example 207] | 4.7 |
| C[C@H]1C(=O)NC[C@@H]1C(=O)Nc1cc(-c2cccc(OC(F)(F)F)c2)n(-c2ccc(F)cc2)n1 [Example 2, (3R,4R)-4-methyl-5-oxopyrrolidine-3-carboxylic acid[1-(4-fluorophenyl)-5-(3-(trifluoromethoxy)phenyl)-1H-pyrazol-3-yl]amide] | 3.4 |
| CCCCc1cccc(-c2cc(NC(=O)[C@@H]3CNC(=O)C3)nn2-c2ccccc2)c1 [Example 46] | 3.7 |
| CCc1cccc(-c2cc(NC(=O)[C@@H]3CNC(=O)C3)nn2-c2ccccc2)c1 [Example 44] | 34 |
| C[C@H]1C(=O)NC[C@@H]1C(=O)Nc1cc(-c2cccc(OCC(F)(F)F)c2)n(-c2ccccc2)n1 [Example 210] | 5.9 |
| CCCc1cccc(-c2cc(NC(=O)[C@H]3CNC(=O)C3)nn2Cc2ccccc2)c1 [Example 98] | 30 |
| O=C1C[C@@H](C(=O)Nc2cc(-c3cccc(OC(F)(F)F)c3)n(C3CCOCC3)n2)CN1 [Example 187] | 42 |
| CCC(F)(F)c1cccc(-c2cc(NC(=O)[C@H]3CNC(=O)C3)nn2-c2ccc(Cl)cc2)c1 [Example 141] | 5.5 |

same assay, conditions: 14C-AMG uptake, CHO-K1 cells stably expressing human SGLT1

| Compound | IC50 [nM] |
| --- | --- |
| COc1cccc(-n2nc(NC(=O)[C@@H]3CNC(=O)C3)cc2-c2cccc(CO[C@H](C)C(F)(F)F)c2)c1 [Example 451] | 3.3 |
| C[C@@H](OCc1cc(F)cc(-c2cc(NC(=O)[C@@H]3CNC(=O)C3)nn2-c2ccc(Cl)cc2)c1)C(F)(F)F [Example 236, (S)-5-oxopyrrolidine-3-carboxylic acid{1-(4-chlorophenyl)-5-[3-fluoro-5-((R)-2,2,2-trifluoro-1-methylethoxymethyl)phenyl]-1H-pyrazol-3-yl}amide] | 5.35 |
| CCCc1cccc(-c2cc(NC(=O)C3CC(=O)NC3C)nn2-c2ccccc2)c1 (single isomer, unassigned) [Example 404] | 18 |
| CCCOCc1cccc(-c2cc(NC(=O)[C@@H]3CNC(=O)C3)nn2-c2ccccc2)c1 [Example 300] | 38 |
| O=C1C[C@H](C(=O)Nc2cc(-c3cccc(COCC(F)(F)F)c3)n(-c3ccc(Cl)cc3)n2)CN1 [Example 508] | 20 |
| O=C1C[C@H](C(=O)Nc2cc(-c3cc(F)cc(COCC(F)(F)F)c3)n(-c3cccc(Cl)c3)n2)CN1 [Example 511] | 7.9 |
| CCCOC(C)(C)c1cccc(-c2cc(NC(=O)[C@@H]3CNC(=O)C3)nn2-c2ccccc2)c1 [Example 326] | 15 |
| CCCc1cccc(-c2cc(NC(=O)[C@@H]3CNC(=O)C3)nn2-c2cccc(OCC(C)C)c2)c1 [Example 381] | 11.5 |
| CC[C@H](C)OCc1cccc(-c2cc(NC(=O)[C@@H]3CNC(=O)C3)nn2-c2ccccc2)c1 [Example 351] | 32 |
| CCCc1cccc(-c2cc(NC(=O)[C@@H]3COC(=O)N3)nn2-c2ccccc2)c1 [Example 368] | 56 |
| CC(C)(OCc1cc(F)cc(-c2cc(NC(=O)[C@H]3CNC(=O)N3)nn2-c2ccc(F)cc2)c1)C(F)(F)F [Example 602] | 28 |
| C[C@@H](OCc1cc(F)cc(-c2cc(NC(=O)[C@H]3CNC(=O)N3)nn2-c2ccc(Cl)cc2)c1)C(F)(F)F [Example 570] | 8.7 |
| O=C1CCC(C(=O)Nc2cc(-c3cccc(COCCC(F)(F)F)c3)n(-c3ccccc3)n2)CN1 (single isomer, unassigned) [Example 338] | 17 |
| CCCc1cccc(-c2cc(NC(=O)[C@@H]3CNC(=O)C3)nn2-c2ccc(F)c(OC)c2)c1 [Example 389] | 15 |
| CCC1C(=O)NCC1C(=O)Nc1cc(-c2cccc(OC(F)(F)F)c2)n(-c2ccccc2)n1 (single isomer, unassigned) [Example 308] | 16 |
| CC(C)Oc1cc(F)cc(-n2nc(NC(=O)[C@@H]3CNC(=O)C3)cc2-c2cccc(OC(F)(F)F)c2)c1 [Example 526] | 9.2 |
| CCCc1cccc(-c2cc(NC(=O)[C@H]3CNC(=O)N3CC)nn2-c2ccccc2)c1 [Example 303] | 4.7 |
| C[C@@H](OCc1cc(Cl)cc(-c2cc(NC(=O)[C@@H]3CNC(=O)C3)nn2-c2ccccc2F)c1)C(F)(F)F [Example 577] | 6.7 |
| CCCc1cccc(-c2cc(NC(=O)[C@@H]3CNC(=O)C3)nn2-c2cccc(OCC)c2)c1 [Example 379] | 5.25 |
| CCOc1cc(F)cc(-n2nc(NC(=O)[C@@H]3CNC(=O)C3)cc2-c2cccc(COCC(F)(F)F)c2)c1 [Example 528] | 3.6 |

same assay, conditions: CHO-K1, at 0.03 uM

| Compound | inhibition at 0.03 µM [%] |
| --- | --- |
| O=C1NCC(C(=O)Nc2cc(-c3cccc(OC(F)(F)F)c3)n(-c3ccccc3)n2)CN1 [Example 252] | 7 |

same assay, conditions: CHO-K1, at 0.1 uM

| Compound | inhibition at 0.1 µM [%] |
| --- | --- |
| CCCc1cccc(-c2cc(NC(=O)[C@@H]3CNC(=O)C3)nn2CC(F)(F)F)c1 [Example 67] | 29 |
| CCCc1cccc(-c2cc(NC(=O)[C@@H]3CNC(=O)CN3)nn2-c2ccccc2)c1 [Example 500] | 19 |
| C[C@@H](OCc1cc(-c2cc(NC(=O)[C@@H]3CNC(=O)C3)nn2-c2ccccc2)ccc1F)C(F)(F)F [Example 557] | 48 |
| CCCN(C)C(=O)c1cccc(-c2cc(NC(=O)[C@@H]3CNC(=O)C3)nn2-c2ccccc2)c1 [Example 430] | 8 |
| CC(C)(C)S(=O)(=O)c1cccc(-c2cc(NC(=O)[C@@H]3CNC(=O)C3)nn2-c2ccccc2)c1 [Example 569] | 29 |
| CS(=O)(=O)c1cccc(-n2nc(NC(=O)[C@@H]3CNC(=O)C3)cc2-c2cccc(COCC(F)(F)F)c2)c1 [Example 530] | 40 |
| C[C@@H](OCc1cc(-c2cc(NC(=O)[C@@H]3CNC(=O)C3)nn2-c2ccccc2)cc(C(F)(F)F)c1)C(F)(F)F [Example 544] | 21 |
| O=C1CC[C@@H](C(=O)Nc2cc(-c3cccc(COCC(F)(F)F)c3)n(-c3ccccc3)n2)N1 [Example 549] | 41 |
| COCCOc1cccc(-n2nc(NC(=O)[C@@H]3CNC(=O)C3)cc2-c2cccc(OC(F)(F)F)c2)c1F [Example 479] | 46 |

same assay, conditions: CHO-K1, at 0.3 uM

| Compound | inhibition at 0.3 µM [%] |
| --- | --- |
| CC(C)S(=O)(=O)c1cccc(-c2cc(NC(=O)[C@@H]3CNC(=O)C3)nn2-c2ccccc2)c1 [Example 568] | 27 |
| CC(C)(O)c1cccc(-c2cc(NC(=O)[C@@H]3CNC(=O)C3)nn2-c2ccccc2)c1 [Example 81] | 43 |

same assay, conditions: CHO-K1, at 1 uM

| Compound | inhibition at 1 µM [%] |
| --- | --- |
| CCCc1cc(-c2cc(NC(=O)[C@H]3CNC(=O)C3)nn2-c2ccccc2)ccc1OCC(=O)O [Example 122] | 9 |
| O=C1C[C@@H](C(=O)Nc2cc(-c3cccc(OC(F)(F)F)c3)n(-c3ccc(Cl)c(F)c3)n2)CN1 [Example 174] | 9 |
